Literature values as cited in patent publication US7816298B2, “Hydroconversion processes employing multi-metallic catalysts and method for making thereof” (Chevron U. S. A. Inc., priority 2007, dated 2010).

Test system: rats
Details: as single oral dose to rats; values quoted for chelating agents (ligand L)

Compound: O=CC(=O)O [glyoxylic]
- LD50: 3000 mg/kg
